Marks after values point to notes of the source that are not given here.
Assays:
[1] = tested on: SARS-CoV-2 isolate USA-WA1/2020; experiment: microbe, parasite or virus in culture; conditions: Severe acute respiratory syndrome coronavirus 2, A549-ACE2, 48 h
[2] = Solubility as observed in antiviral testing
[3] = tested on: SARS-CoV-2 isolate USA-WA1/2020
A549/ACE2/TMPRSS2 cells = experiment: in vitro; conditions: A549/ACE2/TMPRSS2 cells
Method: Percentage of infected cells was determined by dividing the number of infected cells by the total number of cells per well. The percentage of infected cells and total number of cells for each treatment was plotted into GraphPad prism (GraphPad Software; San Diego, CA, USA) to perform a non-linear regression analysis, generate infectious dose-response curves and to calculate EC50 and CC50 values.
Viability assays for the non-infected A549/ACE2/TMPRSS2 cells were performed using the 3-(4,5-dimethylthiazol-2-yl)-5-(3-carboxymethoxyphenyl)-2-(4-sulfophenyl)-2H-tetrazolium (MTS)-based tetrazolium reduction CellTiter 96 Aqueous Non-Radioactive cell proliferation assay (Promega G5430; Madison, WI) as described. Assays were conducted using parallel plates to those used in the immunofluorescence assay. Experimental details (cell line, number of cells seeded and incubation time) corresponded to those used in the immunofluorescence assay above. The data obtained were used to calculate the CC50 value using GraphPad Prism software.

[4] = Liver S9 stability assay, human liver S9; conditions: n = 2, mean±SD
[5] = not given; remark: listed apart in the source
[6] = Plasma stability assay, mouse plasma; format: in vitro ADME, mouse (CD-1)
Method: (§1) Plasma stability assay. The plasma stability assay was performed in triplicate by incubating each selected compound (1 μmol/L final concentration) in normal mouse (CD-1) or human plasma (Innovative Research; Novi, MI, USA) diluted to 80% with 0.1 mol/L potassium phosphate buffer (pH 7.4) at 37° C. At 0, 1, 3, 6, and 24 h, a 50 μL aliquot of the plasma mixture was taken and quenched with 150 μL of acetonitrile containing 0.1% formic acid. The samples were then vortexed and centrifuged at 15,000 rpm (Eppendorf centrifuge 5424R; Enfield, CT, USA) for 5 min. The supernatants were collected and analyzed by LC-MS/MS to determine the in vitro plasma half-life (t1/2).

[7] = Liver S9 stability assay, mouse liver S9; conditions: n = 2, mean±SD; for Mouse Liver S9 Stability t1/2, Phase II: cofactor UDPGA
[8] = Plasma stability assay, human plasma; format: in vitro ADME
Method: as §1

[9] = Parallel artificial membrane permeability assay (PAMPA); format: in vitro ADME
Method: Parallel artificial membrane permeability assay (PAMPA).^5 The membrane permeability of selected compounds was evaluated using the Corning® BioCoat™ Pre-coated PAMPA Plate System (Corning 353015; Glendale, AZ, USA). The pre-coated plate assembly, which was stored at −20° C., was taken to thaw for 30 min at room temperature. The permeability assay was carried out in accordance with the manufacturer's protocol. Briefly, the 96-well filter plate, pre-coated with lipids, was used as the permeation acceptor and a matching 96 well receiver plate was used as the permeation donor. Compound solutions were prepared by diluting the 10 mmol/L DMSO stock solutions with 10% methanol in DPBS to a final concentration of […]. The compound solutions were added to the wells (300 μL/well) of the receiver plate and DPBS with 10% methanol was added to the wells (200 μL/well) of the pre-coated filter plate. The filter plate was then coupled with the receiver plate and the plate assembly was incubated at 25° C. without agitation for 5 h. At the end of the incubation, the plate was separated and the final concentrations of compounds in both donor wells and acceptor wells were analyzed using LC-MS/MS. Permeability of a compound was calculated using the Eq. (1):
where A=filter area (0.3 cm^2), VD=donor well volume (0.3 mL), VA=acceptor well volume (0.2 mL), t=incubation time (seconds), CA(t)=compound concentration in acceptor well at time t, CD(t)=compound concentration in donor well at time t, and Ceq was calculated using the Eq. (2): […]
A cutoff criterion of Pe value at […] was used to classify the compounds into high and low permeability according to the literature report of this PAMPA plate system^1.

SARS-CoV-2 Nsp14 MTase = SARS-CoV-2 Nsp14 MTase (Severe acute respiratory syndrome coronavirus 2, UniProt P0DTD1); experiment: biochemical; format: biochemical

CC(C)C(=O)O[C@@H]1[C@H](OC(=O)C(C)C)[C@@H](CNS(=O)(=O)c2ccc3ccccc3c2)O[C@H]1n1cnc2c(N)ncnc21 [Compound 7, (2R,3R,4R,5R)-2-(6-Amino-9H-purin-9-yl)-5-((naphthalene-2-sulfonamido)methyl)tetrahydrofuran-3,4-diyl bis(2-methylpropanoate)]
EC50 [1]: ~97 µM | solubility [2]: low solubility | antiviral activity ([3]; A549 AT cells): showed antiviral activity | CC50 (A549/ACE2/TMPRSS2 cells): > 100 µM

Nc1ncnn2c([C@@H]3O[C@H](CNS(=O)(=O)c4ccc5ccccc5c4)[C@@H](O)[C@H]3O)ccc12 [Compound 10, N-(((2R,3S,4R,5S)-5-(4-Aminopyrrolo[2,1-f][1,2,4]triazin-7-yl)-3,4-dihydroxytetrahydrofuran-2-yl)methyl)naphthalene-2-sulfonamide]
stability in mouse S9 phase I reactions: surprisingly labile | EC50 [1]: 0.72 µM | Human Liver S9 Stability t1/2, Phase I ([4]; cofactor NADPH): 842 ± 210 min | Human Liver S9 Stability t1/2, Phase II ([4]; cofactor UDPGA): >45^e min | stability in human liver S9 fractions [5]: similarly stable | therapeutic index (TI=CC50/EC50) ([3]; CC50/EC50): greater than 139 | Plasma Stability t1/2, Mouse ([6]; mouse plasma, 37° C., n = 3): >24^d h | stability in mouse plasma ([6]; mouse, plasma): similarly stable | Mouse Liver S9 Stability t1/2, Phase I ([7]; cofactor NADPH): 28.9 ± 0.3 min | Mouse Liver S9 Stability t1/2, Phase II [7]: >45^e min | Plasma Stability t1/2, Human ([8]; human plasma, 37° C., n = 3): >24^d h | stability in human plasma ([8]; human, plasma): similarly stable | passive diffusion rate in PAMPA ([9]; PAMPA): equally low | PAMPA Permeability Pe ([9]; n = 6, mean±SD, 25° C., 5 h): 0.2 ± 0.1 10^−6 cm/s | MTase inhibitory activity (SARS-CoV-2 Nsp14 MTase): comparable to that of 3 | IC50 (SARS-CoV-2 Nsp14 MTase; LC-MS/MS detection of SAH, read-out: MTase IC50): 0.093 µM | CC50 (A549/ACE2/TMPRSS2 cells): > 100 µM

O=c1ccc2ccc(O)cc2o1 [Umbelliferone, reference compound]
Mouse Liver S9 Stability t1/2, Phase II [7]: 0.8 ± 0.005 min
